Data from publication PMC9469500, “Targeting an Initiator Allergen Provides Durable and Expansive Protection against House Dust Mite Allergy” (ACS Pharmacology & Translational Science, 2022).
Converted amounts (≈) assume the structure as drawn.

Assays:
[1] = thermodynamic solubility; format: physicochemical; details: thermodynamic from solid
[2] = permeability (Papp); format: in vitro ADME; details: not told
[3] = system: rat airway epithelial cell line L2; assay: Cellular stability in L2 cells; format: in vitro ADME; details: 100 nM compound
Description: Cellular Stability of Compounds
The cellular stability of compounds in vitro was tested using rat airway epithelial cell line L2 and rat alveolar macrophage line NR8383 (ATCC©CRL-2192™). Assays were performed in replicate and the data expressed as mean ± s.e. mean. L2 cells were cultured to confluence in T25 flasks or 24 -well plates using Kaighn’s modification of Ham’s F12 medium (F12K). Cells were prepared for assay by washing 3 times with serum-free F12K. NR8383 Airway macrophages were grown in suspension culture in F12K, collected by centrifugation, washed in serum-free medium and aliquoted into test plates (1.4 x 10^6 cells/well). Both cell lines were treated with ADI compounds (100 nM) in serum -free F12K in a 5% CO 2 environment at 37 °C. Samples were removed for quantitative analysis by LC -MS-MS using appropriate multiple reaction monitoring transitions for each analyte. […]
n-Octanol (0.7 mL), pre -saturated with 10 mM PBS, pH7.4, was added to test compound (~1 mg) in a 2 mL HPLC vial followed by PBS (0. 7 mL), which had been pre -saturated with n -octanol. The mixture was shaken for 90 min before centrifugation for 10 min at 4,000 rpm. The upper organic layer (0.2 mL) and the aqueous layer (0.5 mL) were removed for analysis by LC-MS. Peak identity was confirmed by mass spectrometry and concentration assessed spectrophotometrically using a diode array detector. The log

[4] = plasma stability (human); format: in vitro ADME
[5] = Plasma protein binding (human); format: in vitro ADME
Description: Plasma Protein Binding Assay
Plasma protein binding (PPB) was determined using Rapid Equilibrium Dialysis chambers with 8 kDa cut-off inserts (Fisher Scientific UK Ltd, Leicestershire, UK). Rat (Sprague Dawley strain) plasma EDTA K2 (pooled, mixed sex, SeraLab, West Sussex, UK) was centrifuged (13,000 x g, 10 min) to remove precipitates before addition of compounds (initial concentration 5 µM). Concentrations were determined by liquid chromatography-tandem mass spectrometry (LC-MS-MS) (AB Sciex 3200 QTrap) after 4 h incubation at 37 °C with binding being calculated from the concentration of compound in each chamber. Assays were performed in replicate and the data expressed as mean ± s.e.
Cellular Stability of Compounds […]
Kaighn’s modification of Ham’s F12 medium (F12K). Cells were prepared for assay by washing 3 times with serum-free F12K. NR8383 Airway macrophages were grown in suspension culture in F12K, collected by centrifugation, washed in serum-free medium and aliquoted into test plates (1.4 x 10^6 cells/well). Both cell lines were treated with ADI compounds (100 nM) in serum -free F12K in a 5% CO 2 environment at 37 […]
n-Octanol (0.7 mL), pre -saturated with 10 mM PBS, pH7.4, was added to test compound (~1 mg) in a 2 mL HPLC vial followed by PBS (0. 7 mL), which had been pre -saturated with n -octanol. […]

[6] = hepatocyte stability (human); format: in vitro ADME; details: hepatocytes
[7] = system: unsensitized BN rats; assay: HDM extract challenge in unsensitized (naive) BN rats, duration of protection; format: in vivo
[8] = system: sensitized Balb/c mice; assay: HDM extract challenge in sensitized Balb/c mice (BAL flow cytometry); format: in vivo; details: HDM 10; i.t. 2 h prior to challenge; BAL 48 h
Description: Mice (female Balb/c 20 ± 2 g, Charles River) were isolator maintained in ventilated cages (Allentown IVC Racks, 36 Mini Isolator System, USA) that had been prepared for use by prior autoclaving. Environmental controls were 22–24 °C/60–80% relative humidity on a 12 h light/dark cycle. Animals were allowed ad libitum access to reverse osmosis-purified water and food (MF-18 laboratory rodent diet). Where prestudy serum samples were mandated, these were taken from the retro-orbital sinus on acclimatization in the isolator facility. Animals were randomly assigned to groups and sensitized to the HDM extract or treated with the vehicle on days 0, 7, and 14. […] Animals were anesthetized with propofol 48 h later (AstraZeneca, 10 mg/mL, 50 μL/mouse, i.v.), and terminal blood samples were taken from the retro-orbital sinus. BAL (3 × 0.5 mL aliquots of PBS) was performed, and the returns were combined for enumeration.
Flow cytometry (FACS) of BAL fluid was performed with a BD FACSAria instrument (Becton Dickinson Biosciences, USA) and the FACSDiva software. Analyses were performed by operators who were unaware of the sample identity. […]

[9] = Pharmacokinetics in rats
[10] = HDM-naive rats, 15 μg/kg i.t. aerosol 2 h prior to HDM 10, BAL 48 h
[11] = single i.t. dose (15 μg/kg compound 1, 46 μg/kg compound 2), BAL 48 h

solubility thermodynamic [1]: 84 µM (≈ 43.9 µg/mL)
Papp [2]: 62 nm/s
cell stability [3]: 100; 100
remaining at 2 h [4]: 100%
fraction unbound at 4 h, 5 µM [5]: 0.004
half-life [6]: 3.02 h
CLint scaled ([6]; read-out: hepatocyte intrinsic clearance): 0.702 L/h/kg
bioavailability ([9]; male, Sprague-Dawley, rat, plasma, po, 5 mg/kg): 39%
half-life ([9]; male, Sprague-Dawley, rat, plasma, po, 5 mg/kg, rat p.o., fasted): 2.1 h
half-life ([9]; male, Sprague-Dawley, rat, plasma, po, 5 mg/kg, rat p.o., fed): 2.9 h
volume of distribution ([9]; rat p.o.): 0.9 L/kg
clearance ([9]; rat p.o., fasted): 27 (fasted) mL/min/kg
SMILES: CC(C)[C@H](NC(=O)[C@H](C)NC(=O)[C@@H](NC(=O)c1ccccc1)C(C)(C)C)C(=O)C(=O)NCc1ccccc1 [Compound 1, N-{(S)-1-[(S)-1-((S)-1-benzylaminooxalyl-2-methyl-propylcarbamoyl)-ethylcarbamoyl]-2,2-dimethyl-propyl}-benzamide]
neutrophil response ([7]; BAL performed 24 h after HDM extract challenge, dosed 2 h prior): clear inhibition
BAL monocyte/macrophage numbers [7, 10]: suppressed
BAL neutrophil numbers [7, 10]: suppressed
cellularity of BAL fluid [7, 10]: suppressed
inhibition at 0.015 mg/kg ([7]; Rattus norvegicus, Eosinophil, inhaled or nasal, 48 h, read-out: inhibition of eosinophil response at peak): > 60%
onset: temporal separation between drug dosing and HDM challenge required to achieve 50% inhibition of the eosinophil response ([7]; estimated, Figure 5D–F, in words): faster in onset
performance in vivo (maximum inhibition of the eosinophil response, Figure 5A) ([7]; focused library, durability of inhibition studies): performed well
effects on BAL neutrophils ([7]; intervening pretreatment intervals, BAL 48 h): insignificant
inhibition of BAL monocytes/macrophages (significance) ([7]; pretreatment 60 min, 15 μg/kg i.t., BAL 48 h): significant
effects on BAL neutrophils ([7]; short or long pretreatment intervals, BAL 48 h): inhibitory
effect on BAL monocytes/macrophages ([7]; shorter pretreatment times, BAL 48 h): modest inhibition
effect on eosinophils with 6–8 h separation of dose and challenge [7, 11]: substantial inhibition
time of administration before challenge giving peak effects on eosinophils [7, 11]: 2 h
doses required for good activity against the HDM extract [8]: > 0.01 mg/kg
